Patent publication US10975083B2, “Blood-brain barrier-penetrant dopamine-β-hydroxylase inhibitors” (BIAL—PORTELA & Cᵃ, S.A., priority 2016, dated 2021)
Read-outs that look alike come from different tables or passages of the source.

Columns and labels:
[1] = in vitro; conditions: dog, MDCK, pH 7.4
[2] = molecular target: T1, DβH (Homo sapiens, UniProt P09172); test: DβH inhibition cell assay (SK-N-SH cellular homogenates, tyramine to octopamine); assay type: biochemical; conditions: for remaining activity at 1 µM: read-out: DβH activity in % of Ctrl (1 μM); for remaining activity at 0.1 µM: read-out: DβH activity in % of Ctrl (0.1 μM); for remaining activity at 10 µM: inhibitor 10 μM, read-out: DβH activity in % of Ctrl (10 μM)
T1 construct: reaction mixture (total volume 500 μl) contained: cellular homogenate (75 μg total protein); host or cells: SK-N-SH cell homogenate
T1 sequence (P09172 1-617): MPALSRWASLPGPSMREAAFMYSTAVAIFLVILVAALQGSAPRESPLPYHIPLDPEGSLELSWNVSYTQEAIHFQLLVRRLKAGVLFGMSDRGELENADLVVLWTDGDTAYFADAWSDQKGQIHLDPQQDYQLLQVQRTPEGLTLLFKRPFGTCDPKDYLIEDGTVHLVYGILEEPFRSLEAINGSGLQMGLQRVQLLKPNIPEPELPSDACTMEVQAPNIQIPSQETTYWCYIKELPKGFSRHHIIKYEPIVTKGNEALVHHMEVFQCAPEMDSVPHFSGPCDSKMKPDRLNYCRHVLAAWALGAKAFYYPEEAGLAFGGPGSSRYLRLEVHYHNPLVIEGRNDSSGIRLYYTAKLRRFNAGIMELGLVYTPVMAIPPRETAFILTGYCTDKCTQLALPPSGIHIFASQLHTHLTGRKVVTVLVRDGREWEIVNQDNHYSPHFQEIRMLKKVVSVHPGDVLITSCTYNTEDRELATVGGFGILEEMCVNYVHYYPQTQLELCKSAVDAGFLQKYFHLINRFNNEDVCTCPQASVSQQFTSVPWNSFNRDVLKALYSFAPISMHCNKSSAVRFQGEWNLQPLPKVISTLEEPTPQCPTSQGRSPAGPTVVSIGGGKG

[3] = inhibitor 1 μM, SK-N-SH cell homogenate
[4] = inhibitor 0.1 μM, SK-N-SH cell homogenate

Structure (SMILES) | Papp A→B at 30 min, 50 μM [1] [×10⁻⁶ cm/s] | remaining activity at 1 µM [2, 3] [%] | remaining activity at 0.1 µM [2, 4] [%] | remaining activity at 10 µM ([2]; SK-N-SH cell homogenate) [%] | remaining activity at 1 µM [2] [%] | remaining activity at 0.1 µM [2] [%]
NC(=S)N1CC[C@H](c2cc(F)cc(F)c2)C1 [Example 26, (R)-3-(3,5-difluorophenyl)pyrrolidine-1-carbothioamide] | 100 | 21.4 | – | – | – | –
NC(=S)N1C[C@H]2C[C@@]2(c2cccs2)C1 [Example 27, (1S,5S)-1-(thiophen-2-yl)-3-azabicyclo[3.1.0]hexane-3-carbothioamide] | 126 | 20.8 | – | – | – | –
CNC(=S)N1C[C@@H]2C[C@]2(c2cc(F)cc(F)c2)C1 [Example 30, (1S,5R)-1-(3,5-Difluorophenyl)-N-methyl-3-azabicyclo[3.1.0]hexane-3-carbothioamide] | 126 | 2.8 | 3.3 | – | – | –
CNC(=S)N1CCC(c2ccccc2)C1 (stereo not shown) [Example 31, N-methyl-3-phenylpyrrolidine-1-carbothioamide] | 79.4 | – | – | 15.8 | – | –
CNC(=S)N1CCC(c2cc(F)cc(F)c2)C1 (stereo not shown) [Example 32, 3-(3,5-difluorophenyl)-N-methylpyrrolidine-1-carbothioamide] | 100 | 4.7 | 57.3 | – | – | –
NC(=S)N1CC2CC2(c2cc(F)cc(F)c2)C1 (stereo not shown) [Example 34, 1-(3,5-difluorophenyl)-3-azabicyclo[3.1.0]hexane-3-carbothioamide] | 63.1 | 0 | 12.3 | – | – | –
NC(=S)N1CC2CC2(c2ccc(F)cc2F)C1 (stereo not shown) [Example 37, 1-(2,4-difluorophenyl)-3-azabicyclo[3.1.0]hexane-3-carbothioamide] | 79.4 | 2.4 | 59.7 | – | – | –
NC(=S)N1CC2CC2(c2cc(F)ccc2F)C1 (stereo not shown) [Example 38, 1-(2,5-difluorophenyl)-3-azabicyclo[3.1.0]hexane-3-carbothioamide] | 79.4 | 0 | 3.3 | – | – | –
CNC(=S)N1CC(c2cc(F)cc(F)c2)CC1=O (stereo not shown) [Example 42, 4-(3,5-difluorophenyl)-N-methyl-2-oxopyrrolidine-1-carbothioamide] | 100 | 44.1 | – | – | – | –
CNC(=S)N1CC2(c3cc(F)cc(F)c3)CC2C1=O (stereo not shown) [Example 43, 1-(3,5-Difluorophenyl)-N-methyl-4-oxo-3-azabicyclo[3.1.0]hexane-3-carbothioamide] | 200 | 0 | 43.6 | – | – | –
S=c1[nH]cc2n1CC(c1ccccc1)C2 (stereo not shown) [Example 49, 6-phenyl-6,7-dihydro-2H-pyrrolo[1,2-c]imidazole-3(5H)-thione] | 100 | – | – | – | 60.6 | –
Fc1cc(F)cc(C2Cc3c[nH]c(=S)n3C2)c1 (stereo not shown) [Example 50, 6-(3,5-difluorophenyl)-6,7-dihydro-2H-pyrrolo[1,2-c]imidazole-3(5H)-thione] | 126 | 36.6 | 89.3 | 6.8 | – | –
Fc1ccc(C2Cc3c[nH]c(=S)n3C2)c(F)c1 (stereo not shown) [Example 51, 6-(2,4-Difluorophenyl)-6,7-dihydro-2H-pyrrolo[1,2-c]imidazole-3(5H)-thione] | 100 | – | – | – | 54.4 | –
Fc1ccc(F)c(C2Cc3c[nH]c(=S)n3C2)c1 (stereo not shown) [Example 52, 6-(2,5-difluorophenyl)-6,7-dihydro-2H-pyrrolo[1,2-c]imidazole-3(5H)-thione] | 100 | 27.3 | – | – | – | –
Fc1cc(F)cc(C23CC2c2c[nH]c(=S)n2C3)c1 (stereo not shown) [Example 53, 5a-(3,5-difluorophenyl)-5,5a,6,6a-tetrahydrocyclopropa[3,4]pyrrolo[1,2-c]imidazole-3(2H)-thione] | 25.1 | – | – | – | 11.8 | 66.5
Fc1cc(F)cc([C@]23C[C@H]2c2c[nH]c(=S)n2C3)c1 [Example 54, (5aS,6aR)-5a-(3,5-difluorophenyl)-5,5a,6,6a-tetrahydrocyclopropa[3,4]pyrrolo[1,2-c]imidazole-3(2H)-thione] | 25.1 | 8.2 | 44.3 | – | – | –
Fc1ccc(F)c(C23CC2c2c[nH]c(=S)n2C3)c1 (stereo not shown) [Example 55, 5a-(2,5-difluorophenyl)-5,5a,6,6a-tetrahydrocyclopropa[3,4]pyrrolo[1,2-c]imidazole-3(2H)-thione] | 79.4 | 0.4 | 61 | – | – | –
Fc1ccc(F)c([C@]23C[C@H]2c2c[nH]c(=S)n2C3)c1 [Example 56, (5aS,6aR)-5a-(2,5-difluorophenyl)-5,5a,6,6a-tetrahydrocyclopropa[3,4]pyrrolo[1,2-c]imidazole-3(2H)-thione] | 15.8 | 7.8 | 41.7 | – | – | –
Fc1ccc(F)c([C@@]23C[C@@H]2c2c[nH]c(=S)n2C3)c1 [Example 57, (5aR,6aS)-5a-(2,5-difluorophenyl)-5,5a,6,6a-tetrahydrocyclopropa[3,4]pyrrolo[1,2-c]imidazole-3(2H)-thione] | 63.1 | 58.6 | 97.9 | 9.2 | – | –
Fc1cc(F)cc([C@H]2Cc3c[nH]c(=S)n3C2)c1 [Example 58, (R)-6-(3,5-difluorophenyl)-6,7-dihydro-2H-pyrrolo[1,2-c]imidazole-3(5H)-thione] | 126 | – | – | – | 59.8 | 106
Fc1cc(F)cc([C@@H]2Cc3c[nH]c(=S)n3C2)c1 [Example 59, (S)-6-(3,5-difluorophenyl)-6,7-dihydro-2H-pyrrolo[1,2-c]imidazole-3(5H)-thione] | 251 | 27.8 | 100 | – | – | –
